From patent US12227500B2, “Substituted pyrrolo[2,3-b]pyridines for suppressing toxic endoplasmic reticulum stress” (THE TRUSTEES OF COLUMBIA UNIVERSITY IN THE CITY OF NEW YORK, priority 2018, dated 2025)
Like-named read-outs stand apart in the source and are kept apart here.

Tests used:
Test in all cases: Radiolabeled ATP kinase assay, panel of 60 kinases (Table S5)
Type in all cases: biochemical
[1] = biological target: T1, panel of 60 human kinases (Homo sapiens, UniProt Q16288); settings: TRKC; 0.1 μM; 10 μM ATP; read-out: % Enzyme Activity (relative to DSMO controls)
T1 construct: purchased Reaction Biology Corp
T1 sequence (Q16288 32-839): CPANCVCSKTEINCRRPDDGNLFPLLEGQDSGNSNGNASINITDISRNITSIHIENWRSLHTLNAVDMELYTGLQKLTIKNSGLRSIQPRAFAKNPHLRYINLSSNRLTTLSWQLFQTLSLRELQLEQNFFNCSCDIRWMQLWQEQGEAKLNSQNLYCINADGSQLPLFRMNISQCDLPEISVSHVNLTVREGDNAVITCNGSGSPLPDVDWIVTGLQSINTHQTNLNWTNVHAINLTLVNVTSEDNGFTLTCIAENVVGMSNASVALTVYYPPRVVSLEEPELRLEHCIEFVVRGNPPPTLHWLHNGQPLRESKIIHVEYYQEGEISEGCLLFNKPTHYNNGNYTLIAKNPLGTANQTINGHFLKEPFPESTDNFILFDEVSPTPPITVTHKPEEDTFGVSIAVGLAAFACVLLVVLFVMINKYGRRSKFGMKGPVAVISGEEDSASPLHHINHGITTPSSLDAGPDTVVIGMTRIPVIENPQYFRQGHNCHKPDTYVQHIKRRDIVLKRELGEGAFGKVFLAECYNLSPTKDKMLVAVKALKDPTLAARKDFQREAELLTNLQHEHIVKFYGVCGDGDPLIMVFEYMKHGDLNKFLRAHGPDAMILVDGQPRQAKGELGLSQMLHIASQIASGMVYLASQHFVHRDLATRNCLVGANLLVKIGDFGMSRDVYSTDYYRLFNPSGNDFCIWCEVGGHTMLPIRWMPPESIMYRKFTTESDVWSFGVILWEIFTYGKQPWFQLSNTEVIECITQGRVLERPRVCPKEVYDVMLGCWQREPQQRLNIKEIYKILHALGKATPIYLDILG
Outline: (§1)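 Compounds at two concentrations, 0.1 μM and 0.5 μM, were screened for inhibition of 60 kinases in cell-free assays read out by radiolabeled ATP.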

[2] = biological target: T2, panel of 60 human kinases (Homo sapiens, UniProt Q9HAZ1); settings: CLK4; 0.1 μM; 10 μM ATP; read-out: % Enzyme Activity (relative to DSMO controls)
T2 construct: purchased Reaction Biology Corp
T2 sequence (Q9HAZ1 whole entry): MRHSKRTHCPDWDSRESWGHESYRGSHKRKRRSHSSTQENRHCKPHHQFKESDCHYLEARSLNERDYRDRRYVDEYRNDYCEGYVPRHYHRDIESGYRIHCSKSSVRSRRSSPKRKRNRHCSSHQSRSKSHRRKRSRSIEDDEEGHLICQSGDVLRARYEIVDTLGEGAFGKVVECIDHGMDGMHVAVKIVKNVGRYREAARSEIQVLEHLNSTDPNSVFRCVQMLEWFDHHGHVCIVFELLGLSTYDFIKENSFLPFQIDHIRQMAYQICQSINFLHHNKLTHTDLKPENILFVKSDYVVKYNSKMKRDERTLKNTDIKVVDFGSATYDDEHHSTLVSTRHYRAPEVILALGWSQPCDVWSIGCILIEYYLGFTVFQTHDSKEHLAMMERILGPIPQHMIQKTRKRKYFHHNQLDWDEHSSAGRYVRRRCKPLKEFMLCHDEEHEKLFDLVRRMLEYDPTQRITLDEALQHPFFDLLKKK
Outline: as §1

[3] = biological target: T3, panel of 60 human kinases (Homo sapiens, UniProt Q96GD4); settings: Aurora B; 0.1 μM; 10 μM ATP; read-out: % Enzyme Activity (relative to DSMO controls)
T3 construct: purchased Reaction Biology Corp
Outline: as §1

[4] = biological target: T4, panel of 60 human kinases (Homo sapiens, UniProt O14965); settings: Aurora A; 0.1 μM; 10 μM ATP; read-out: % Enzyme Activity (relative to DSMO controls)
T4 construct: purchased Reaction Biology Corp
T4 sequence (O14965 1-403): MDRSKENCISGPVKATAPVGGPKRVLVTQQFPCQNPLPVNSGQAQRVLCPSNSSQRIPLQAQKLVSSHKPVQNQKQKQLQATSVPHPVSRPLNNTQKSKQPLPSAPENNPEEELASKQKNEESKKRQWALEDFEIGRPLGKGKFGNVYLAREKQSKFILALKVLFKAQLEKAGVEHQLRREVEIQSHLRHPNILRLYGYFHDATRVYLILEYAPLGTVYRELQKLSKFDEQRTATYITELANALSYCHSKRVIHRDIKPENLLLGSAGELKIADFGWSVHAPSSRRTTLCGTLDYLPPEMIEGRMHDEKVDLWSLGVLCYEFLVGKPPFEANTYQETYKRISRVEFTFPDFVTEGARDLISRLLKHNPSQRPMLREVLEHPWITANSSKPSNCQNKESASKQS
Outline: as §1

[5] = biological target: T5, panel of 60 human kinases (Homo sapiens, UniProt Q07002); settings: CDK18/cyclin Y (PCTK3); 0.1 μM; 10 μM ATP; read-out: % Enzyme Activity (relative to DSMO controls)
T5 construct: purchased Reaction Biology Corp
T5 sequence (Q07002 whole entry): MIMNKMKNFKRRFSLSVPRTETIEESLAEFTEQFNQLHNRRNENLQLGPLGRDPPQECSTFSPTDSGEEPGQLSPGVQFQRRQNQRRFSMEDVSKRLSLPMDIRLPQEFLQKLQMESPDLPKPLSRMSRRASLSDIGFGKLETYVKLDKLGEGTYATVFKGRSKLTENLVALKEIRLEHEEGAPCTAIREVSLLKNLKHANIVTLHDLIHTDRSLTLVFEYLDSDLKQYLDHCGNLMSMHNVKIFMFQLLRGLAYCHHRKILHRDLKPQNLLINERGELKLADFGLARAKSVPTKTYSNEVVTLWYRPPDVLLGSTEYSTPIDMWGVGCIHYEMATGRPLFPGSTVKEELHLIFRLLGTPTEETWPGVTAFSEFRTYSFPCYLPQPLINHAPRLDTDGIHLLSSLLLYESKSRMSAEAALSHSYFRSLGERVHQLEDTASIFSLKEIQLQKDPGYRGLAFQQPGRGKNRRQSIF
Outline: as §1

[6] = biological target: T6, panel of 60 human kinases (Homo sapiens, UniProt P24941); settings: 0.1 μM, 10 μM ATP, read-out: % Enzyme Activity (relative to DSMO controls)
T6 construct: purchased Reaction Biology Corp
Outline: as §1

[7] = biological target: T7, panel of 60 human kinases (Homo sapiens, UniProt Q00536); settings: CDK16/cyclin Y (PCTAIRE); 0.1 μM; 10 μM ATP; read-out: % Enzyme Activity (relative to DSMO controls)
T7 construct: purchased Reaction Biology Corp
Outline: as §1

[8] = biological target: T8, panel of 60 human kinases (Homo sapiens, UniProt P22607); settings: FGFR3; 0.1 μM; 10 μM ATP; read-out: % Enzyme Activity (relative to DSMO controls)
T8 construct: purchased Reaction Biology Corp
Outline: as §1

[9] = biological target: T9, panel of 60 human kinases (Homo sapiens, UniProt Q9UKE5); settings: TNIK; 0.1 μM; 10 μM ATP; read-out: % Enzyme Activity (relative to DSMO controls)
T9 construct: purchased Reaction Biology Corp
Outline: as §1

[10] = biological target: T10, panel of 60 human kinases (Homo sapiens, UniProt Q00537); settings: CDK17/cyclin Y (PCTK2); 0.1 μM; 10 μM ATP; read-out: % Enzyme Activity (relative to DSMO controls)
T10 construct: purchased Reaction Biology Corp
T10 sequence (Q00537 whole entry): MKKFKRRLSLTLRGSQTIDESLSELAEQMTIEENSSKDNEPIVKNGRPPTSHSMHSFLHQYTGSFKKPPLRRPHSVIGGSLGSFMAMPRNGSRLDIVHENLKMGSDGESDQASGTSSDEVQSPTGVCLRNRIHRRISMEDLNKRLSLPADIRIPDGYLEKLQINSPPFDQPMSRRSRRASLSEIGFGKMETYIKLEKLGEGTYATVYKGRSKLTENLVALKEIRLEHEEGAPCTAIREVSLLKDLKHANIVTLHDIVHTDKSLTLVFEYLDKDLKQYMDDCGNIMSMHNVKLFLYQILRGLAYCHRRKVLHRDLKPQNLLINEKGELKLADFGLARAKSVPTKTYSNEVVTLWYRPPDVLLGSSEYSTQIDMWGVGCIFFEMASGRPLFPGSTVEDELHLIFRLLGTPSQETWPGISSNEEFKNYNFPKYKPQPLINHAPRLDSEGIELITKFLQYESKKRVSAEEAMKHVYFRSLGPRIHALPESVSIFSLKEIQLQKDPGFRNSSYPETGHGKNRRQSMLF
Outline: as §1

[11] = biological target: T11, panel of 60 human kinases (Homo sapiens, UniProt P49841); settings: GSK3b; 0.1 μM; 10 μM ATP; read-out: % Enzyme Activity (relative to DSMO controls)
T11 construct: purchased Reaction Biology Corp
Outline: as §1

[12] = biological target: T12, panel of 60 human kinases (Homo sapiens, UniProt P49760); settings: CLK2; 0.1 μM; 10 μM ATP; read-out: % Enzyme Activity (relative to DSMO controls)
T12 construct: purchased Reaction Biology Corp
Outline: as §1

[13] = biological target: T13, panel of 60 human kinases (Homo sapiens, UniProt P08581); settings: c-MET; 0.1 μM; 10 μM ATP; read-out: % Enzyme Activity (relative to DSMO controls)
T13 construct: purchased Reaction Biology Corp
Outline: as §1

[14] = biological target: T14, panel of 60 human kinases (Homo sapiens, UniProt Q8N4C8); settings: MINK/MINK1; 0.1 μM; 10 μM ATP; read-out: % Enzyme Activity (relative to DSMO controls)
T14 construct: purchased Reaction Biology Corp
T14 sequence (Q8N4C8 whole entry): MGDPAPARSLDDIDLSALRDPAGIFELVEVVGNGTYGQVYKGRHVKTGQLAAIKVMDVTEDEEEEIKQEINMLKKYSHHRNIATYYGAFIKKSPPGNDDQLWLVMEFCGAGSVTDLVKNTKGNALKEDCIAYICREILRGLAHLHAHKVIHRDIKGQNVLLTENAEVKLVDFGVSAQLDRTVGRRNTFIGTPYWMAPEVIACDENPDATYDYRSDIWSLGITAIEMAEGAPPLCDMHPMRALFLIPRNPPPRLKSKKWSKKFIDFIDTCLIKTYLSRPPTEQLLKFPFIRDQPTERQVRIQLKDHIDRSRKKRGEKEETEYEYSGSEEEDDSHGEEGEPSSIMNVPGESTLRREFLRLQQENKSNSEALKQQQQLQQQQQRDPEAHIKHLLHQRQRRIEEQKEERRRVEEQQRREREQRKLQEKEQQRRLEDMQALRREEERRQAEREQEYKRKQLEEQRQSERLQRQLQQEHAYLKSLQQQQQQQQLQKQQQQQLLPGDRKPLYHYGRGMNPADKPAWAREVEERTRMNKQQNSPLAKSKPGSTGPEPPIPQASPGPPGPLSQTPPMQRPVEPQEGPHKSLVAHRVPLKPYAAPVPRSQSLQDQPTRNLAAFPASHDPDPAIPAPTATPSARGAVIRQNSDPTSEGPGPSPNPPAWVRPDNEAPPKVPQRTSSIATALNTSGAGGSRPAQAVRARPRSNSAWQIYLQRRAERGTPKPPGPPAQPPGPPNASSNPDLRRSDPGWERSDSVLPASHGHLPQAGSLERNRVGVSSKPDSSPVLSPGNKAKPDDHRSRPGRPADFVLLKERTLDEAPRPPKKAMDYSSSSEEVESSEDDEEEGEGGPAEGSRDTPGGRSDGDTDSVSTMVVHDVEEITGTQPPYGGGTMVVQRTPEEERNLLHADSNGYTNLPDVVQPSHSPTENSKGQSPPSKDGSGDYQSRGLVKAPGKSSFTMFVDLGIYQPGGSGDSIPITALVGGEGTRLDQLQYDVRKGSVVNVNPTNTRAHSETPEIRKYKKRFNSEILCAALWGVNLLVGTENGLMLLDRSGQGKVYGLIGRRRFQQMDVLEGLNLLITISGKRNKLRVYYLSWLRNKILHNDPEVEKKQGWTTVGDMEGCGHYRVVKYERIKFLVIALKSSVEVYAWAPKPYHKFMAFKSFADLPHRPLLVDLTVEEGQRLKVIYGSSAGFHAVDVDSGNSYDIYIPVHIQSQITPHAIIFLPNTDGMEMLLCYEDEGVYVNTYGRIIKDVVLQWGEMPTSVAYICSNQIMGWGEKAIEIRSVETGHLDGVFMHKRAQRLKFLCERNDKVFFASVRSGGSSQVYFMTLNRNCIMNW
Outline: as §1

[15] = biological target: T15, panel of 60 human kinases (Homo sapiens, UniProt P42684); settings: ABL2/ARG; 0.1 μM; 10 μM ATP; read-out: % Enzyme Activity (relative to DSMO controls)
T15 construct: purchased Reaction Biology Corp
T15 sequence (P42684 whole entry): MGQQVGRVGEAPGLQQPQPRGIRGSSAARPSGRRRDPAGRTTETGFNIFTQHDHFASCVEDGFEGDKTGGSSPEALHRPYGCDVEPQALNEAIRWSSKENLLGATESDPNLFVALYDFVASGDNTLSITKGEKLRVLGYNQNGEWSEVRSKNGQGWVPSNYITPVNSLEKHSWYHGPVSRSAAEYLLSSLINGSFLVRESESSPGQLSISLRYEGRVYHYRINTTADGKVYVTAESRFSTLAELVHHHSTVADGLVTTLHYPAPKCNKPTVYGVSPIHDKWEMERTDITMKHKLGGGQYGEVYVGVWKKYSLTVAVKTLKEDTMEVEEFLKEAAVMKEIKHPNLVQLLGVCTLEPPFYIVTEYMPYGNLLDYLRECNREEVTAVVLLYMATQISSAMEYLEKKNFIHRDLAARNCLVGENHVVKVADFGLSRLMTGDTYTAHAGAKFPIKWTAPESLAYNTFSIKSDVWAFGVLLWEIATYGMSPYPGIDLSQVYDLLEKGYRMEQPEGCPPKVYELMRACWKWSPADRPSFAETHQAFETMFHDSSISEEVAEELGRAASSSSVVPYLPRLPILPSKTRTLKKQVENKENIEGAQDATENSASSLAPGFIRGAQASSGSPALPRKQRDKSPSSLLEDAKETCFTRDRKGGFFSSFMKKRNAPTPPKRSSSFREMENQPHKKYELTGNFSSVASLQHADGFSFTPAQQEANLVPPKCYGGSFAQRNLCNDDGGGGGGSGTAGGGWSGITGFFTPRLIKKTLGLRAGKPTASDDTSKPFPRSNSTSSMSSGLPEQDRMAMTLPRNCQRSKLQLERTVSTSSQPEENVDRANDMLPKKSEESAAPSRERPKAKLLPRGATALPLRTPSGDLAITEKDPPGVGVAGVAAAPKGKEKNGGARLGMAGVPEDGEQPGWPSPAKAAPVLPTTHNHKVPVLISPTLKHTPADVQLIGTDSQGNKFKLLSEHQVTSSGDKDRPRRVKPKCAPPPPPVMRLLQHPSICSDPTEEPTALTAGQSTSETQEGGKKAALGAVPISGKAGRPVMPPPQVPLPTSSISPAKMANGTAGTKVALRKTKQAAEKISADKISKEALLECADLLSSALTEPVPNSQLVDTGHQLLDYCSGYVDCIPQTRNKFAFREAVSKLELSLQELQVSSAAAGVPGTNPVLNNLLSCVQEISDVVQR
Outline: as §1

[16] = biological target: T16, panel of 60 human kinases (Homo sapiens, UniProt Q92918); settings: HPK1/MAP4K1; 0.1 μM; 10 μM ATP; read-out: % Enzyme Activity (relative to DSMO controls)
T16 construct: purchased Reaction Biology Corp
Outline: as §1

[17] = biological target: T17, panel of 60 human kinases (Homo sapiens, UniProt Q00535); settings: 0.1 μM, 10 μM ATP, read-out: % Enzyme Activity (relative to DSMO controls)
T17 construct: purchased Reaction Biology Corp
Outline: as §1

Compound: CN1CCN(Cc2ccc(-c3cnc4[nH]cc(-c5ccc6c(c5)OCCO6)c4c3)cc2)CC1 [Compound 7d, 3-(2,3-Dihydrobenzo[b][1,4]dioxin-6-yl)-5-(4-((4-methylpiperazin-1-yl)methyl)phenyl)-1H-pyrrolo[2,3-b]pyridine]
- remaining activity at 0.1 µM [1]: 17.7%
- remaining activity at 0.1 µM [2]: 21.3%
- remaining activity at 0.1 µM [3]: 83.5%
- remaining activity at 0.1 µM [4]: 74.8%
- remaining activity at 0.1 µM [5]: 82.8%
- remaining activity at 0.1 µM ([6]; CDK2/cyclin A1): 38.8%
- remaining activity at 0.1 µM ([6]; CDK2/cyclin A): 34.4%
- remaining activity at 0.1 µM ([6]; CDK2/cyclin E): 89.1%
- remaining activity at 0.1 µM ([6]; CDK2/cyclin O): 39%
- remaining activity at 0.1 µM [7]: 58%
- remaining activity at 0.1 µM [8]: 73.4%
- remaining activity at 0.1 µM [9]: 12.1%
- remaining activity at 0.1 µM [10]: 41.1%
- remaining activity at 0.1 µM [11]: 30.9%
- remaining activity at 0.1 µM [12]: 2.71%
- remaining activity at 0.1 µM [13]: 110%
- remaining activity at 0.1 µM [14]: 6.69%
- remaining activity at 0.1 µM [15]: 72.7%
- remaining activity at 0.1 µM [16]: 11.3%
- remaining activity at 0.1 µM ([17]; CDK5/p25): 16.4%
- remaining activity at 0.1 µM ([17]; CDK5/p35): 14.2%

Compound: CN1CCN(Cc2ccc(-c3cnc4[nH]cc(-c5ccncc5)c4c3)cc2)CC1 [Compound 7n, 5-(4-((4-Methylpiperazin-1-yl)methyl)phenyl)-3-(pyridin-4-yl)-1H-pyrrolo[2,3-b]pyridine]
- remaining activity at 0.1 µM [1]: 25.4%
- remaining activity at 0.1 µM [2]: 72.2%
- remaining activity at 0.1 µM [3]: 86.9%
- remaining activity at 0.1 µM [4]: 96.4%
- remaining activity at 0.1 µM [5]: 24%
- remaining activity at 0.1 µM ([6]; CDK2/cyclin A1): 60.2%
- remaining activity at 0.1 µM ([6]; CDK2/cyclin A): 66%
- remaining activity at 0.1 µM ([6]; CDK2/cyclin E): 54.3%
- remaining activity at 0.1 µM ([6]; CDK2/cyclin O): 43.7%
- remaining activity at 0.1 µM [7]: 21.5%
- remaining activity at 0.1 µM [8]: 85.9%
- remaining activity at 0.1 µM [9]: 6.7%
- remaining activity at 0.1 µM [10]: 10.7%
- remaining activity at 0.1 µM [11]: 90.7%
- remaining activity at 0.1 µM [12]: 23.6%
- remaining activity at 0.1 µM [13]: 102%
- remaining activity at 0.1 µM [14]: 38.8%
- remaining activity at 0.1 µM [15]: 91.5%
- remaining activity at 0.1 µM [16]: 57.7%
- remaining activity at 0.1 µM ([17]; CDK5/p25): 69.2%
- remaining activity at 0.1 µM ([17]; CDK5/p35): 57.5%

Compound: CN1CCN(Cc2ccc(-c3cnc4[nH]cc(-c5ccoc5)c4c3)cc2)CC1 [Compound 7w, 3-(Furan-3-yl)-5-(4-((4-methylpiperazin-1-yl)methyl)phenyl)-1H-pyrrolo[2,3-b]pyridine]
- remaining activity at 0.1 µM [1]: 25.8%
- remaining activity at 0.1 µM [2]: 85.5%
- remaining activity at 0.1 µM [3]: 89.9%
- remaining activity at 0.1 µM [4]: 83.9%
- remaining activity at 0.1 µM [5]: 94.5%
- remaining activity at 0.1 µM ([6]; CDK2/cyclin A1): 88.6%
- remaining activity at 0.1 µM ([6]; CDK2/cyclin A): 91.1%
- remaining activity at 0.1 µM ([6]; CDK2/cyclin E): 92.4%
- remaining activity at 0.1 µM ([6]; CDK2/cyclin O): 80.2%
- remaining activity at 0.1 µM [7]: 80.8%
- remaining activity at 0.1 µM [8]: 70.7%
- remaining activity at 0.1 µM [9]: 0.45%
- remaining activity at 0.1 µM [10]: 61.4%
- remaining activity at 0.1 µM [11]: 85.1%
- remaining activity at 0.1 µM [12]: 59.2%
- remaining activity at 0.1 µM [13]: 96.6%
- remaining activity at 0.1 µM [14]: 3.72%
- remaining activity at 0.1 µM [15]: 77.6%
- remaining activity at 0.1 µM [16]: 62.4%
- remaining activity at 0.1 µM ([17]; CDK5/p25): 89.4%
- remaining activity at 0.1 µM ([17]; CDK5/p35): 82.2%
